Test results as given in ChEMBL document CHEMBL5143523, “Construction and activity evaluation of novel benzodioxane derivatives as dual-target antifungal inhibitors” (Eur J Med Chem, 2022).
Converted amounts (≈) assume the structure as drawn.

Tests used:
Candida albicans [1] = experiment: Antifungal activity against Candida albicans ATCC 10231 assessed as fungal growth inhibition measured after 72 hrs by CLSI protocol based liquid medium dilution method; assay type: functional
Pichia kudriavzevii = experiment: Antifungal activity against Candida krusei ATCC 6258 assessed as fungal growth inhibition measured after 72 hrs by CLSI protocol based liquid medium dilution method; assay type: functional
Nakaseomyces glabratus = experiment: Antifungal activity against Candida glabrata ATCC 0001 assessed as fungal growth inhibition measured after 72 hrs by CLSI protocol based liquid medium dilution method; assay type: functional
Candida tropicalis = experiment: Antifungal activity against Candida tropicalis ATCC 1369 assessed as fungal growth inhibition measured after 72 hrs by CLSI protocol based liquid medium dilution method; assay type: functional
Aspergillus fumigatus = experiment: Antifungal activity against Aspergillus fumigatus KM8001 assessed as fungal growth inhibition measured after 72 hrs by CLSI protocol based liquid medium dilution method; assay type: functional
Candida albicans [2] = experiment: Antifungal activity against fluconazole resistant Candida albicans strain 17# assessed as fungal growth inhibition measured after 72 hrs by CLSI protocol based liquid medium dilution method; assay type: functional
Candida albicans [3] = experiment: Antifungal activity against fluconazole resistant Candida albicans strain CaR assessed as fungal growth inhibition measured after 72 hrs by CLSI protocol based liquid medium dilution method; assay type: functional
Candida albicans [4] = experiment: Antifungal activity against fluconazole resistant Candida albicans strain 103 assessed as fungal growth inhibition measured after 72 hrs by CLSI protocol based liquid medium dilution method; assay type: functional
Candida albicans [5] = experiment: Antifungal activity against fluconazole resistant Candida albicans strain 901 assessed as fungal growth inhibition measured after 72 hrs by CLSI protocol based liquid medium dilution method; assay type: functional
Candida albicans [6] = experiment: Antifungal activity against fluconazole resistant Candida albicans strain 904 assessed as fungal growth inhibition measured after 72 hrs by CLSI protocol based liquid medium dilution method; assay type: functional
Candida albicans [7] = experiment: Induction of apoptosis in Candida albicans ATCC SC5314 cells assessed as live cells at 8 ug/ml incubated for 72 hrs by Annexin V-FITC/PI staining based flow cytometry method (reference value: 95.56%); assay type: functional; settings: dose 8 µg/ml
Candida albicans [8] = experiment: Induction of apoptosis in Candida albicans ATCC SC5314 cells assessed as early apoptotic cells at 8 ug/ml incubated for 72 hrs by Annexin V-FITC/PI staining based flow cytometry method (reference value: 0.56%); assay type: functional; settings: dose 8 µg/ml
Candida albicans [9] = experiment: Induction of apoptosis in Candida albicans ATCC SC5314 cells assessed as necrotic cells at 8 ug/ml incubated for 72 hrs by Annexin V-FITC/PI staining based flow cytometry method (reference value: 3.76%); assay type: functional; settings: dose 8 µg/ml
Candida albicans [10] = experiment: Induction of apoptosis in Candida albicans ATCC SC5314 cells assessed as late apoptotic cells at 8 ug/ml incubated for 72 hrs by Annexin V-FITC/PI staining based flow cytometry method (reference value: 0.12%); assay type: functional; settings: dose 8 µg/ml
Candida albicans [11] = experiment: Antifungal activity against Candida albicans ATCC SC5314 assessed as decrease in ergosterol content at 4 ug/ml incubated for 48 hrs by LC-MS analysis (reference value: 90.6%); assay type: functional; set-up: scale not given: the % may be the effect or the level left; settings: dose 4 µg/ml
Candida albicans [12] = experiment: Antifungal activity against Candida albicans ATCC SC5314 assessed as change in squalene level at 4 ug/ml incubated for 48 hrs by LC-MS analysis; assay type: functional; settings: dose 4 µg/ml
Candida albicans [13] = experiment: Antifungal activity against Candida albicans ATCC SC5314 assessed as change in lanosterol level at 4 ug/ml incubated for 48 hrs by LC-MS analysis (reference value: 3.7%); assay type: functional; settings: dose 4 µg/ml
Candida albicans [14] = experiment: Antifungal activity against Candida albicans ATCC SC5314 assessed as change in eburicol level at 4 ug/ml incubated for 48 hrs by LC-MS analysis (reference value: 1.4%); assay type: functional; settings: dose 4 µg/ml
Candida albicans [15] = experiment: Antifungal activity against Candida albicans ATCC SC5314 assessed as change in unknown sterol level at 4 ug/ml incubated for 48 hrs by LC-MS analysis (reference value: 4.3%); assay type: functional; settings: dose 4 µg/ml
[16] = target: Lanosterol 14-alpha demethylase (Candida albicans (strain SC5314 / ATCC MYA-2876) (Yeast), UniProt P10613); experiment: Inhibition of CYP51 in Candida albicans ATCC SC5314 incubated for 30 mins using eburicol as substrate in presence of NADPH by HPLC analysis
Sequence of Lanosterol 14-alpha demethylase (P10613 whole entry): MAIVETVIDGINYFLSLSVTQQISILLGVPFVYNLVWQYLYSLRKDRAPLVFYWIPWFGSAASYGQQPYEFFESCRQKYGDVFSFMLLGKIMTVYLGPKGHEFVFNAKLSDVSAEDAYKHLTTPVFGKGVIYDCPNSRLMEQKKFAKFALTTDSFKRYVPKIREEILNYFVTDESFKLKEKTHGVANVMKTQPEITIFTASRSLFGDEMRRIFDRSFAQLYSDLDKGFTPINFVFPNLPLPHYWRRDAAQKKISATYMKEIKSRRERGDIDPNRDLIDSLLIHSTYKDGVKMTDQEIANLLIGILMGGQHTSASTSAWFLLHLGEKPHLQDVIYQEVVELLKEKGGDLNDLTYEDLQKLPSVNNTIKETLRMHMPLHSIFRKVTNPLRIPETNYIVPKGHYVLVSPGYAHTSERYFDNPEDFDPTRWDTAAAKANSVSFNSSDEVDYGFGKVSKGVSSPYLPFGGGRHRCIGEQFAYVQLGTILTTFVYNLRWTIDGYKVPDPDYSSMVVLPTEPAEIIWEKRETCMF

Candida albicans [17] = experiment: Antifungal activity against Candida albicans assessed as fungal growth inhibition measured after 72 hrs by CLSI protocol based liquid medium dilution method; assay type: functional

| Structure (SMILES) | MIC50 (Candida albicans [1]) [µg/mL] | MIC50 (Pichia kudriavzevii) [µg/mL] | MIC50 (Nakaseomyces glabratus) [µg/mL] | MIC50 (Candida tropicalis) [µg/mL] | MIC50 (Aspergillus fumigatus) [µg/mL] | other results |
| --- | --- | --- | --- | --- | --- | --- |
| CCC(C)[C@H](NC(=O)c1ccc2c(c1)OCCO2)C(=O)N[C@@H](Cn1cncn1)c1ccccc1 (stereo not given in full) | 0.25 (≈ 0.539 µM) | 0.25 (≈ 0.539 µM) | 0.5 (≈ 1.08 µM) | 0.25 (≈ 0.539 µM) | 4 (≈ 8.63 µM) |  |
| OC(Cn1cncn1)(Cn1cncn1)c1ccc(F)cc1F [FLUCONAZOLE] | 0.25 (≈ 0.816 µM) | 0.5 (≈ 1.63 µM) | 0.25 (≈ 0.816 µM) | 0.5 (≈ 1.63 µM) | > 8 | MIC50 (Candida albicans [2]): > 8 µg/mL; MIC50 (Candida albicans [3]): > 8 µg/mL; MIC50 (Candida albicans [4]): > 8 µg/mL; MIC50 (Candida albicans [5]): > 8 µg/mL; MIC50 (Candida albicans [6]): > 8 µg/mL; Activity (Candida albicans [7]): 76.56%; Activity (Candida albicans [8]): 1.83%; Activity (Candida albicans [9]): 18.59%; Activity (Candida albicans [10]): 3.02%; Activity (Candida albicans [11]): 29.5%; Activity (Candida albicans [12]): 2.7%; Activity (Candida albicans [13]): 21.6%; Activity (Candida albicans [14]): 40.6%; Activity (Candida albicans [15]): 5.6%; IC50 [16]: 148 nM |
| O=C(N[C@@H](Cn1ccnc1)c1ccccc1)c1ccc2c(c1)OCCO2 | 0.25 (≈ 0.716 µM) | 0.5 (≈ 1.43 µM) | 0.25 (≈ 0.716 µM) | 0.25 (≈ 0.716 µM) | > 8 |  |
| CCC(C)[C@H](NC(=O)c1cccc2c1OCCO2)C(=O)N[C@@H](Cn1ccnc1)c1ccccc1 (stereo not given in full) | 0.5 (≈ 1.08 µM) | 0.5 (≈ 1.08 µM) | 0.25 (≈ 0.54 µM) | 0.25 (≈ 0.54 µM) | > 8 |  |
| CC(C)[C@H](NC(=O)c1cccc2c1OCCO2)C(=O)Nc1ccncc1 | 0.5 (≈ 1.41 µM) | 1 (≈ 2.81 µM) | 0.5 (≈ 1.41 µM) | 0.5 (≈ 1.41 µM) | 4 (≈ 11.3 µM) | MIC50 (Candida albicans [17]): 0.5 µg/mL (≈ 1.41 µM) |
| CCC(C)[C@H](NC(=O)c1ccc2c(c1)OCCO2)C(=O)Nc1cccnc1 (stereo not given in full) | 0.5 (≈ 1.35 µM) | 1 (≈ 2.71 µM) | 1 (≈ 2.71 µM) | 2 (≈ 5.41 µM) | 4 (≈ 10.8 µM) |  |
| CCC(C)[C@H](NC(=O)c1ccc2c(c1)OCCO2)C(=O)N[C@@H](Cn1ccnc1)c1ccccc1 (stereo not given in full) | 0.125 (≈ 0.27 µM) | 0.25 (≈ 0.54 µM) | 0.125 (≈ 0.27 µM) | 0.5 (≈ 1.08 µM) | 2 (≈ 4.32 µM) | MIC50 (Candida albicans [2]): 2 µg/mL (≈ 4.32 µM); MIC50 (Candida albicans [3]): 2 µg/mL (≈ 4.32 µM); MIC50 (Candida albicans [4]): 1 µg/mL (≈ 2.16 µM); MIC50 (Candida albicans [5]): 2 µg/mL (≈ 4.32 µM); MIC50 (Candida albicans [6]): 4 µg/mL (≈ 8.65 µM) |
| O=C(N[C@H](Cc1ccccc1)Cn1ccnc1)c1ccc2c(c1)OCCO2 | 0.5 (≈ 1.38 µM) | 0.5 (≈ 1.38 µM) | 0.25 (≈ 0.688 µM) | 0.5 (≈ 1.38 µM) | 4 (≈ 11 µM) |  |
| CC(C)[C@H](NC(=O)c1cccc2c1OCCO2)C(=O)Nc1cccnc1 | 0.5 (≈ 1.41 µM) | 0.5 (≈ 1.41 µM) | 1 (≈ 2.81 µM) | 1 (≈ 2.81 µM) | > 8 |  |
| CC(C)[C@H](NC(=O)c1ccc2c(c1)OCCO2)C(=O)N[C@@H](Cn1ccnc1)c1ccccc1 | 0.25 (≈ 0.557 µM) | 0.5 (≈ 1.11 µM) | 0.25 (≈ 0.557 µM) | 0.125 (≈ 0.279 µM) | 4 (≈ 8.92 µM) |  |
| CCC(C)[C@H](NC(=O)c1cccc2c1OCCO2)C(=O)Nc1ccncc1 (stereo not given in full) | 1 (≈ 2.71 µM) | 0.5 (≈ 1.35 µM) | 2 (≈ 5.41 µM) | 0.5 (≈ 1.35 µM) | 4 (≈ 10.8 µM) |  |
| CC(C)[C@H](NC(=O)c1ccc2c(c1)OCCO2)C(=O)N[C@@H](Cn1cncn1)c1ccccc1 | 0.25 (≈ 0.556 µM) | 0.25 (≈ 0.556 µM) | 0.5 (≈ 1.11 µM) | 0.25 (≈ 0.556 µM) | > 8 |  |
| O=C(N[C@@H](Cn1cncn1)c1ccccc1)c1cccc2c1OCCO2 | 0.125 (≈ 0.357 µM) | 0.25 (≈ 0.714 µM) | 1 (≈ 2.85 µM) | 0.5 (≈ 1.43 µM) | > 8 |  |
| O=C(N[C@H](Cc1ccccc1)Cn1cncn1)c1cccc2c1OCCO2 | 0.25 (≈ 0.686 µM) | 0.5 (≈ 1.37 µM) | 0.5 (≈ 1.37 µM) | 0.25 (≈ 0.686 µM) | 4 (≈ 11 µM) |  |
| CC(C)[C@H](NC(=O)c1ccc2c(c1)OCCO2)C(=O)Nc1cccnc1 | 0.25 (≈ 0.703 µM) | 0.5 (≈ 1.41 µM) | 1 (≈ 2.81 µM) | 1 (≈ 2.81 µM) | > 8 |  |
| O=C(NCCc1ccccc1)c1cccc2c1OCCO2 |  |  |  |  |  | MIC50 (Candida albicans [17]): 8 µg/mL (≈ 28.2 µM) |
| CC(C)[C@H](NC(=O)c1ccc2c(c1)OCCO2)C(=O)Nc1ccncc1 | 0.5 (≈ 1.41 µM) | 0.25 (≈ 0.703 µM) | 0.5 (≈ 1.41 µM) | 0.5 (≈ 1.41 µM) | > 8 |  |
| CC(C)[C@H](NC(=O)c1cccc2c1OCCO2)C(=O)N[C@@H](Cn1ccnc1)c1ccccc1 | 0.25 (≈ 0.557 µM) | 0.25 (≈ 0.557 µM) | 0.5 (≈ 1.11 µM) | 0.5 (≈ 1.11 µM) | > 8 | MIC50 (Candida albicans [17]): 0.25 µg/mL (≈ 0.557 µM) |
| CCC(C)[C@H](NC(=O)c1cccc2c1OCCO2)C(=O)N[C@@H](Cn1cncn1)c1ccccc1 (stereo not given in full) | 0.125 (≈ 0.27 µM) | 0.25 (≈ 0.539 µM) | 0.5 (≈ 1.08 µM) | 0.25 (≈ 0.539 µM) | 4 (≈ 8.63 µM) |  |
| O=C(N[C@@H](Cn1ccnc1)c1ccccc1)c1cccc2c1OCCO2 | 0.5 (≈ 1.43 µM) | 1 (≈ 2.86 µM) | 0.5 (≈ 1.43 µM) | 0.5 (≈ 1.43 µM) | > 8 |  |
| O=C(N[C@H](Cc1ccccc1)Cn1ccnc1)c1cccc2c1OCCO2 | 0.5 (≈ 1.38 µM) | 0.5 (≈ 1.38 µM) | 0.25 (≈ 0.688 µM) | 0.25 (≈ 0.688 µM) | > 8 | MIC50 (Candida albicans [17]): 0.5 µg/mL (≈ 1.38 µM) |
| CCC(C)[C@H](NC(=O)c1ccc2c(c1)OCCO2)C(=O)Nc1ccncc1 (stereo not given in full) | 0.5 (≈ 1.35 µM) | 1 (≈ 2.71 µM) | 2 (≈ 5.41 µM) | 0.5 (≈ 1.35 µM) | > 8 |  |
| CCOC(=O)[C@@H](NC(=O)c1cccc2c1OCCO2)C(C)C |  |  |  |  |  | MIC50 (Candida albicans [17]): 16 µg/mL (≈ 52.1 µM) |
| O=C(N[C@@H](Cn1cncn1)c1ccccc1)c1ccc2c(c1)OCCO2 | 0.125 (≈ 0.357 µM) | 0.5 (≈ 1.43 µM) | 0.125 (≈ 0.357 µM) | 0.5 (≈ 1.43 µM) | > 8 |  |
| CCC(C)[C@H](NC(=O)c1cccc2c1OCCO2)C(=O)Nc1cccnc1 (stereo not given in full) | 0.5 (≈ 1.35 µM) | 2 (≈ 5.41 µM) | 1 (≈ 2.71 µM) | 0.5 (≈ 1.35 µM) | > 8 |  |
